Test results taken from ChEMBL document CHEMBL3826960, “Robust design of some selective matrix metalloproteinase-2 inhibitors over matrix metalloproteinase-9 through in silico/fragment-based lead identification and de novo lead modification: Syntheses and biological assays” (Bioorg Med Chem, 2016).

Key:
[1] = target: Matrix metalloproteinase-9 (Homo sapiens, UniProt P14780)
Description: Inhibition of human recombinant MMP9 by colorimetric analysis

A549 [2] = experiment: cells; assay type: functional; settings: Homo sapiens, A549, 24 h
Description: Reduction of MMP2 expression in human A549 cells at 50 uM after 24 hrs by confocal microsocopy

Interstitial collagenase = target: T1, Interstitial collagenase (Homo sapiens, UniProt P03956)
T1 sequence (P03956 whole entry): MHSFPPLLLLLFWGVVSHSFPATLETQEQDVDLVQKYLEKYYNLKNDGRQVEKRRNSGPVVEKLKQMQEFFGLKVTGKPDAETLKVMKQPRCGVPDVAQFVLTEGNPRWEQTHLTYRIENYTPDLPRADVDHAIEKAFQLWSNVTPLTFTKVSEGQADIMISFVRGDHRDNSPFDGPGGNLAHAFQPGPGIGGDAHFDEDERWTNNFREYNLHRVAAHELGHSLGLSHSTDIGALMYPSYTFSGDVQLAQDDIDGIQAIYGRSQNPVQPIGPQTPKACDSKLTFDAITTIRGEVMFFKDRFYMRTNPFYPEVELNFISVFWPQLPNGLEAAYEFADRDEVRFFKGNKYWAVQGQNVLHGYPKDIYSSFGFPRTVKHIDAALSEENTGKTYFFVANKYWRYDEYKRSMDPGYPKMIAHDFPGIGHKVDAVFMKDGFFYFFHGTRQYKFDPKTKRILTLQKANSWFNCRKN
Description: Inhibition of human recombinant MMP1 by colorimetric analysis

[3] = target: Macrophage metalloelastase (Homo sapiens, UniProt P39900)
Description: Inhibition of human recombinant MMP12 by colorimetric analysis

Neutrophil collagenase = Neutrophil collagenase (Homo sapiens, UniProt P22894)
Description: Inhibition of human recombinant MMP8 by colorimetric analysis

[4] = target: Matrix metalloproteinase-14 (Homo sapiens, UniProt P50281)
Description: Inhibition of human recombinant MMP14 by colorimetric analysis

A549 [5] = experiment: cells; assay type: functional; settings: Homo sapiens, A549, 48 h
Description: Cytotoxicity against human A549 cells assessed as cell viability at 300 uM after 48 hrs by MTT assay

A549 [6] = experiment: cells; assay type: functional; settings: Homo sapiens, A549, 48 h; remark: listed apart in the source
Description: Cytotoxicity against human A549 cells assessed as cell viability at 100 uM after 48 hrs by MTT assay

A549 [7] = experiment: cells; assay type: functional; settings: Homo sapiens, A549, 48 h; remark: listed apart in the source
A549 [8] = experiment: cells; assay type: functional; settings: Homo sapiens, A549, 48 h; remark: listed apart in the source
A549 [9] = experiment: cells; assay type: functional, cell-based; settings: Homo sapiens, A549, 48 h
Description: Cytotoxicity against human A549 cells assessed as cell viability after 48 hrs by MTT assay

Chain of Matrix metalloproteinase-9 (P14780 whole entry): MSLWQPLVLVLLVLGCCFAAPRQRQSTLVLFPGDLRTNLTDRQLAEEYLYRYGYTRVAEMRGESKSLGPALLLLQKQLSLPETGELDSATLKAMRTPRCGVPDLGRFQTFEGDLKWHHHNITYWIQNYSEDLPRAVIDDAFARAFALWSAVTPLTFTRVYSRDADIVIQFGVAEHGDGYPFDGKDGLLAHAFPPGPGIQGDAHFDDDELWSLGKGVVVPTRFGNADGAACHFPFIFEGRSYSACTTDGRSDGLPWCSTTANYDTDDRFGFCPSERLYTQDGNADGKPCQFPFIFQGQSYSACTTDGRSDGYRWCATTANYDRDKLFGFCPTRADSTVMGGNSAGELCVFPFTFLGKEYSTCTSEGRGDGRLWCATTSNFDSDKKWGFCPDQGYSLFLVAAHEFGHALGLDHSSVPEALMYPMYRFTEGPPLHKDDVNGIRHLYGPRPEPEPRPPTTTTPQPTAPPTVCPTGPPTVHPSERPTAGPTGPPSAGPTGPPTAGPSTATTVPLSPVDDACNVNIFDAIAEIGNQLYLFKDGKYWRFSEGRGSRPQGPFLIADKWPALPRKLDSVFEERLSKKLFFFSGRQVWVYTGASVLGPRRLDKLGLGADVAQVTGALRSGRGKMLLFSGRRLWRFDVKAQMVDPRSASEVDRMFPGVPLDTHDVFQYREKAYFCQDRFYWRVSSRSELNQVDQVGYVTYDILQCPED
Chain of Macrophage metalloelastase (P39900 whole entry): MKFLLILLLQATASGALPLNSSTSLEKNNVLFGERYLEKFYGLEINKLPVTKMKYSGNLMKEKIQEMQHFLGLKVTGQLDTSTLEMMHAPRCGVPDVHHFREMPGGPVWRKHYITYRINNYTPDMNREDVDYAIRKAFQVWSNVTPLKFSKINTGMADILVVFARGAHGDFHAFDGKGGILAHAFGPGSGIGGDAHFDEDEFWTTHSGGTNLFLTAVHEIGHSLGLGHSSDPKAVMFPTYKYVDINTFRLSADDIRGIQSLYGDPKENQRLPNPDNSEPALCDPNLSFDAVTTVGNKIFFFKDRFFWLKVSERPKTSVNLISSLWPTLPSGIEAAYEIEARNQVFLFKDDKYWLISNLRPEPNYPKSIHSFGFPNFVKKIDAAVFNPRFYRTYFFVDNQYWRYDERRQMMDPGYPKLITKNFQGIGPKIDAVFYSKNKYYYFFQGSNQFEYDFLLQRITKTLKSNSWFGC
Chain of Neutrophil collagenase (P22894 whole entry): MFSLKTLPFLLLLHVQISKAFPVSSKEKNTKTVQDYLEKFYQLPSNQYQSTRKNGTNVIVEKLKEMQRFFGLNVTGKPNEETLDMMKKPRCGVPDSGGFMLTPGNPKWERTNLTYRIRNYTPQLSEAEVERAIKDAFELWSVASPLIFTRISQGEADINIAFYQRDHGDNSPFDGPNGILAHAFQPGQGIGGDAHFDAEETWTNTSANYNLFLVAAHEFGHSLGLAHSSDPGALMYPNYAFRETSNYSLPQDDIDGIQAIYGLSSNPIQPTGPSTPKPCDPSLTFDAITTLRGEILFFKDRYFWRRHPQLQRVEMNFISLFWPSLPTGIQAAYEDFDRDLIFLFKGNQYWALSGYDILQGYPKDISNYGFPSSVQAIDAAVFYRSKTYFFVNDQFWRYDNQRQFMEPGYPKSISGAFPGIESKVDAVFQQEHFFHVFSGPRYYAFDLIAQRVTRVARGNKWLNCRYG

Row | Compound | IC50 [1] [µM] | IC50 (Interstitial collagenase) [µM] | IC50 [3] [µM] | IC50 (Neutrophil collagenase) [µM] | IC50 [4] [µM] | IC50 (A549 [9]) [µM] | inhibition at 50 µM (A549 [2]) [%] | viability at 300 µM (A549 [5]) [%] | viability at 100 µM (A549 [6]) [%] | viability at 100 µM (A549 [7]) [%] | viability at 200 µM (A549 [8]) [%]
1 | CCCCCNC(=O)CC[C@H](NS(=O)(=O)c1ccc(-c2ccccc2)cc1)C(=O)O | 5.72 | > 10 | 0.0523 | 0.059 | 1 |  | ≤ 52.1 | 61 | 80 |  | 
2 | O=C(CC[C@H](NS(=O)(=O)c1ccc(-c2ccc(Br)cc2)cc1)C(=O)O)NCc1ccccc1 | 5.99 |  |  |  |  |  |  |  |  |  | 
3 | CCCNC(=O)CC[C@H](NS(=O)(=O)c1ccc(-c2ccccc2)cc1)C(=O)O | 11.3 | > 10 |  | 0.0453 | 7.78 |  |  |  |  |  | 
4 | CCCCCCNC(=O)CC[C@H](NS(=O)(=O)c1ccc(-c2ccccc2)cc1)C(=O)O | 5.88 | > 10 | 0.0961 | 0.0814 | 0.807 |  |  | 65 | 80 |  | 
5 | CC(C)CNC(=O)CC[C@H](NS(=O)(=O)c1ccc(-c2ccccc2)cc1)C(=O)O | 8.17 | > 10 | 0.247 | 0.226 | 8.81 |  |  | 79 | 80 |  | 
6 | O=C(CC[C@H](NS(=O)(=O)c1ccc(-c2ccccc2)cc1)C(=O)O)NCc1cc(C(F)(F)F)cc(C(F)(F)F)c1 | 6.74 | > 10 | 0.462 | 0.228 | 6.31 | 270 | ≤ 78.9 | 43 | 80 | 98.5 | 96.1
7 | CC(C)NC(=O)CC[C@H](NS(=O)(=O)c1ccc(-c2ccccc2)cc1)C(=O)O | 7.41 |  |  |  |  |  |  |  |  |  | 
8 | NC(=O)CC[C@H](NS(=O)(=O)c1ccc(-c2ccccc2)cc1)C(=O)O | 7.43 |  |  |  |  |  |  |  |  |  | 
9 | O=C(CC[C@H](NS(=O)(=O)c1ccc(-c2ccccc2)cc1)C(=O)O)NCCc1ccccc1 | 7 | > 10 | 0.297 | 0.104 | 6.88 |  |  |  |  |  | 
10 | CNC(=O)CC[C@H](NS(=O)(=O)c1ccc(-c2ccccc2)cc1)C(=O)O | 38.4 |  |  |  |  |  |  |  |  |  | 
11 | CCNC(=O)CC[C@H](NS(=O)(=O)c1ccc(-c2ccccc2)cc1)C(=O)O | 8.71 |  |  |  |  |  |  |  |  |  | 
12 | CC(C)(C)NC(=O)CC[C@H](NS(=O)(=O)c1ccc(-c2ccccc2)cc1)C(=O)O | 8.5 |  |  |  |  |  |  |  |  |  | 

Now those with a lower IC50 [1], led by results:

Row | IC50 [1] [µM] | IC50 (Interstitial collagenase) [µM] | IC50 [3] [µM] | IC50 (Neutrophil collagenase) [µM] | IC50 [4] [µM] | IC50 (A549 [9]) [µM] | Compound | inhibition at 50 µM (A549 [2]) [%] | viability at 300 µM (A549 [5]) [%] | viability at 100 µM (A549 [6]) [%] | viability at 100 µM (A549 [7]) [%] | viability at 200 µM (A549 [8]) [%]
13 | 5.49 |  |  |  |  |  | CCCCCNC(=O)CC[C@H](NS(=O)(=O)c1ccc(-c2ccc(Br)cc2)cc1)C(=O)O |  |  |  |  | 
14 | 4.28 | > 10 | 0.296 | 0.0562 | 1.39 |  | O=C(CC[C@H](NS(=O)(=O)c1ccc(-c2ccccc2)cc1)C(=O)O)Nc1ccccc1 |  | 78 | 80 |  | 
15 | 2.09 |  |  |  |  |  | O=C(CC[C@H](NS(=O)(=O)c1ccc(-c2ccccc2)cc1)C(=O)O)NCc1ccc(Cl)cc1 |  |  |  |  | 
16 | 1.82 |  |  |  |  |  | COc1ccc(CNC(=O)CC[C@H](NS(=O)(=O)c2ccc(-c3ccccc3)cc2)C(=O)O)cc1 |  |  |  |  | 
17 | 1.16 | > 10 | 0.084 | 0.047 | 5.42 |  | O=C(CC[C@H](NS(=O)(=O)c1ccc(-c2ccccc2)cc1)C(=O)O)NCc1ccc(F)cc1 |  | 85 | 80 |  | 
18 | 0.88 | > 10 | 0.063 | 0.039 | 1.61 |  | O=C(CC[C@H](NS(=O)(=O)c1ccc(-c2ccccc2)cc1)C(=O)O)NCc1ccccc1Cl |  | 68 | 80 |  | 
19 | 0.715 | > 10 | 0.071 | 0.0596 | 4.64 |  | CCCCNC(=O)CC[C@H](NS(=O)(=O)c1ccc(-c2ccccc2)cc1)C(=O)O |  | 59 | 80 |  | 
20 | 0.636 | > 10 | 0.0732 | 0.0648 | 2.41 |  | O=C(CC[C@H](NS(=O)(=O)c1ccc(-c2ccccc2)cc1)C(=O)O)NC1CCCCC1 |  | 70 | 80 |  | 
21 | 0.492 | > 10 | 0.0532 | 0.0213 | 0.427 |  | O=C(CC[C@H](NS(=O)(=O)c1ccc(-c2ccccc2)cc1)C(=O)O)NCc1ccccc1 | ≤ 60.5 | 66 | 80 | 98.3 | 95.8
